The source of these data is ChEMBL document CHEMBL1142022, “Synthesis and evaluation of diverse analogs of amygdalin as potential peptidomimetics of peptide T” (Bioorg Med Chem Lett, 2005).

The structures appear in SMILES notation.

Common to all, as to format: functional
The target of assay [1] is T-cell surface glycoprotein CD4 (Homo sapiens) (UniProt P01730). The assay is described as follows: Chemotactic activity of compound measured as function of concentration of 10 uM compared to peptide T,[DA1a]peptide T and amygdalin.
Assay [2] shares this target. The assay is described as follows: Chemotactic activity of compound measured as function of concentration of 11 uM compared to peptide T,[DA1a]peptide T and amygdalin.
The target is the same in assay [3]. The assay is described as follows: Chemotactic activity of compound measured as function of concentration of 7 uM compared to peptide T,[DA1a]peptide T and amygdalin.
For assay [4] the target is unchanged. The assay is described as follows: Chemotactic activity of compound measured as function of concentration of 9 uM compared to peptide T,[DA1a]peptide T and amygdalin.
Assay [5] has the same target. The assay is described as follows: Chemotactic activity of compound measured as function of concentration of 8 uM compared to peptide T,[DA1a]peptide T and amygdalin.
The target is the same in assay [6]. The assay is described as follows: Chemotactic activity of compound measured as function of concentration of 6 uM compared to peptide T,[DA1a]peptide T and amygdalin.

`COc1ccc(CO[C@@H]2O[C@@H](CO[C@@H]3O[C@@H](CO)[C@@H](O)[C@H](O)[C@@H]3O)[C@@H](O)[C@H](O)[C@@H]2O)c(OC)c1`: the Chemotactic index in assay [1] was 0.84.

Turning to `C[C@H](N)C(=O)N[C@@H](CO)C(=O)N[C@H](C(=O)N[C@H](C(=O)N[C@H](C(=O)N[C@@H](CC(N)=O)C(=O)N[C@@H](Cc1ccc(O)cc1)C(=O)N[C@H](C(=O)O)[C@@H](C)O)[C@@H](C)O)[C@@H](C)O)[C@@H](C)O`, the Chemotactic index in assay [2] is 1.09. As for `OC[C@@H]1O[C@@H](OC[C@@H]2O[C@@H](OCc3ccccc3Br)[C@@H](O)[C@@H](O)[C@@H]2O)[C@@H](O)[C@@H](O)[C@@H]1O`, in assay [1], the Chemotactic index was 0.94.

Consider `NC(=O)[C@H](O[C@@H]1O[C@@H](CO[C@@H]2O[C@@H](CO)[C@@H](O)[C@H](O)[C@@H]2O)[C@@H](O)[C@H](O)[C@@H]1O)c1ccccc1`, for which the Chemotactic index in assay [3] amounted to 0.84. `C[C@@H](N)C(=O)N[C@@H](CO)C(=O)N[C@H](C(=O)N[C@H](C(=O)N[C@H](C(=O)N[C@@H](CC(N)=O)C(=O)N[C@@H](Cc1ccc(O)cc1)C(=O)N[C@H](C(N)=O)[C@@H](C)O)[C@@H](C)O)[C@@H](C)O)[C@@H](C)O` returned a Chemotactic index in assay [2] of 0.89. For the compound `COc1ccc(CO[C@@H]2O[C@@H](CO[C@@H]3O[C@@H](CO)[C@@H](O)[C@H](O)[C@@H]3O)[C@@H](O)[C@H](O)[C@@H]2O)cc1`, in assay [1], the Chemotactic index was 0.87. On to `CC(C)(C)C(O[C@@H]1O[C@@H](CO[C@@H]2O[C@@H](CO)[C@@H](O)[C@H](O)[C@@H]2O)[C@@H](O)[C@H](O)[C@@H]1O)c1ccccc1` (stereo not given in full), for which the Chemotactic index in assay [4] was 0.84. Regarding `CC(O[C@@H]1O[C@@H](CO[C@@H]2O[C@@H](CO)[C@@H](O)[C@H](O)[C@@H]2O)[C@@H](O)[C@H](O)[C@@H]1O)c1ccccc1` (stereo not given in full), the Chemotactic index in assay [5] was 0.77. Still for that read-out and setting: as for `OC[C@@H]1O[C@@H](OC[C@@H]2O[C@@H](OCc3ccccc3)[C@@H](O)[C@@H](O)[C@@H]2O)[C@@H](O)[C@@H](O)[C@@H]1O`, the figure is 0.76. As to `OC[C@@H]1O[C@@H](OC[C@@H]2O[C@@H](OCCc3ccccc3)[C@@H](O)[C@@H](O)[C@@H]2O)[C@@H](O)[C@@H](O)[C@@H]1O`, the Chemotactic index in assay [4] was found to be 0.7.

The compound `N#CC(O[C@@H]1O[C@H](CO[C@@H]2O[C@H](CO)[C@@H](O)[C@H](O)[C@H]2O)[C@@H](O)[C@H](O)[C@H]1O)c1ccccc1` (single isomer, unassigned) came in with a Chemotactic index in assay [1] of 0.63. With `OC[C@@H]1O[C@@H](OC[C@@H]2O[C@@H](OCc3c4ccccc4cc4ccccc34)[C@@H](O)[C@@H](O)[C@@H]2O)[C@@H](O)[C@@H](O)[C@@H]1O`, in assay [5], the Chemotactic index worked out at 0.94.

In turn, `C#CC(O[C@@H]1O[C@@H](CO[C@@H]2O[C@@H](CO)[C@@H](O)[C@H](O)[C@@H]2O)[C@@H](O)[C@H](O)[C@@H]1O)c1ccccc1` (stereo not given in full) returned a Chemotactic index in assay [6] of 0.79. In turn, `O=C(O)[C@H](O[C@@H]1O[C@@H](CO[C@@H]2O[C@@H](CO)[C@@H](O)[C@H](O)[C@@H]2O)[C@@H](O)[C@H](O)[C@@H]1O)c1ccccc1` registered a Chemotactic index in assay [4] of 0.71. In the case of `CCC(O[C@@H]1O[C@@H](CO[C@@H]2O[C@@H](CO)[C@@H](O)[C@H](O)[C@@H]2O)[C@@H](O)[C@H](O)[C@@H]1O)c1ccccc1` (stereo not given in full), the Chemotactic index in assay [6] is 0.75.
